Tests used:
Abutilon [1] = assay: Pre-emergence test; format: in vivo; details: Abutilon, 504 h, greenhouse, after three weeks, read-out: degree of damage to the plants (% damage), Abutilon; for pest or weed control at 1000 g/ha: 1000 g of ai./ha
Protocol: (§1) Solvent: 5 parts by weight of acetone
(§2) Emulsifier: 1 part by weight of alkylaryl polyglycol ether
(§3) To produce a suitable preparation of active compound, 1 part by weight of active compound is mixed with the stated amount of solvent, the stated amount of emulsifier is added and the concentrate is diluted with water to the desired concentration.
(§4) Seeds of the test plants are sown in normal soil. After about 24 hours, the soil is watered with the preparation of active compound. The amount of water per unit area is advantageously kept constant. The concentration of active compound in the preparation is immaterial, only the application rate of active compound per unit area matters.
(§5) After three weeks, the degree of damage to the plants is scored visually in % damage in comparison to the development of the untreated control.
(§6) 0%=no effect (like untreated control)

Alopecurus [2] = assay: Pre-emergence test; format: in vivo; details: greenhouse, 1000 g of ai./ha, after three weeks
Protocol: as §1, §2, §3, §4, §5, §6

Amaranthus [3] = assay: Pre-emergence test; format: in vivo; details: Amaranthus, 504 h, greenhouse, after three weeks, read-out: degree of damage to the plants (% damage), Amaranthus; for pest or weed control at 1000 g/ha: 1000 g of ai./ha
Protocol: as §1, §2, §3, §4, §5, §6

Galium [4] = assay: Pre-emergence test; format: in vivo; details: greenhouse, 1000 g of ai./ha, after three weeks
Protocol: as §1, §2, §3, §4, §5, §6

Setaria [5] = assay: Pre-emergence test; format: in vivo; details: greenhouse, 1000 g of ai./ha, after three weeks
Protocol: as §1, §2, §3, §4, §5, §6

weeds [6] = assay: Pre-emergence test; format: in vivo
Protocol: as §1, §2, §3, §4, §5, §6

Abutilon [7] = assay: Post-emergence test; format: in vivo; details: greenhouse, 1000 g of ai./ha, after three weeks
Protocol: as §1, §2, §3
(§7) Test plants which have a height of 5-15 cm are sprayed with the preparation of active compound such that the particular amounts of active compounds desired are applied per unit area. The concentration of the spray liquor is chosen so that the particular amounts of active compound desired are applied in 1000 l of water/ha.
(§8) After three weeks, the degree of damage to the plants is scored visually in % damage, in comparison to the untreated control.
as §6

Alopecurus [8] = assay: Post-emergence test; format: in vivo; details: greenhouse, 1000 g of ai./ha, after three weeks
Protocol: as §1, §2, §3, §7, §8, §6

Amaranthus [9] = assay: Post-emergence test; format: in vivo; details: greenhouse, after three weeks; for pest or weed control at 1000 g/ha / pest or weed control at 500 g/ha: Amaranthus, 504 h, read-out: degree of damage to the plants (% damage), Amaranthus; for pest or weed control at 1000 g/ha / degree of damage to the plants (% damage), Amaranthus: 1000 g of ai./ha; for pest or weed control at 500 g/ha: 500 g of ai./ha
Protocol: as §1, §2, §3, §7, §8, §6

Galium [10] = assay: Post-emergence test; format: in vivo; details: greenhouse, 1000 g of ai./ha, after three weeks
Protocol: as §1, §2, §3, §7, §8, §6

Setaria [11] = assay: Post-emergence test; format: in vivo; details: greenhouse, after three weeks; for pest or weed control at 1000 g/ha / pest or weed control at 500 g/ha: Setaria, 504 h, read-out: degree of damage to the plants (% damage), Setaria; for pest or weed control at 1000 g/ha / degree of damage to the plants (% damage), Setaria: 1000 g of ai./ha; for pest or weed control at 500 g/ha: 500 g of ai./ha
Protocol: as §1, §2, §3, §7, §8, §6

Xanthium = assay: Post-emergence test; format: in vivo; details: greenhouse, 1000 g of ai./ha, after three weeks
Protocol: as §1, §2, §3, §7, §8, §6

weeds [12] = assay: Post-emergence test; format: in vivo
Protocol: as §1, §2, §3, §7, §8, §6

Datura = assay: Pre-emergence test; format: in vivo; details: greenhouse, 500 g of ai./ha, after three weeks
Protocol: as §1, §2, §3, §4, §5, §6

Digitaria = assay: Pre-emergence test; format: in vivo; details: greenhouse, 500 g of ai./ha, after three weeks
Protocol: as §1, §2, §3, §4, §5, §6

Echinochloa [13] = assay: Pre-emergence test; format: in vivo; details: greenhouse, 500 g of ai./ha, after three weeks
Protocol: as §1, §2, §3, §4, §5, §6

Polygonum [14] = assay: Pre-emergence test; format: in vivo; details: greenhouse, 500 g of ai./ha, after three weeks
Protocol: as §1, §2, §3, §4, §5, §6

Veronica = assay: Pre-emergence test; format: in vivo; details: greenhouse, 500 g of ai./ha, after three weeks
Protocol: as §1, §2, §3, §4, §5, §6

Wheat [15] = assay: Pre-emergence test; format: in vivo; details: greenhouse, 500 g of ai./ha, after three weeks
Protocol: as §1, §2, §3, §4, §5, §6

Echinochloa [16] = assay: Post-emergence test; format: in vivo; details: greenhouse, 500 g of ai./ha, after three weeks
Protocol: as §1, §2, §3, §7, §8, §6

Ipomoea = assay: Post-emergence test; format: in vivo; details: greenhouse, 500 g of ai./ha, after three weeks
Protocol: as §1, §2, §3, §7, §8, §6

Polygonum [17] = assay: Post-emergence test; format: in vivo; details: greenhouse, 500 g of ai./ha, after three weeks
Protocol: as §1, §2, §3, §7, §8, §6

Solanum = assay: Post-emergence test; format: in vivo; details: greenhouse, 500 g of ai./ha, after three weeks
Protocol: as §1, §2, §3, §7, §8, §6

Maize = assay: Pre-emergence test; format: in vivo; details: greenhouse, 1000 g of ai./ha, after three weeks
Protocol: as §1, §2, §3, §4, §5, §6

Sinapis = assay: Pre-emergence test; format: in vivo; details: greenhouse, 1000 g of ai./ha, after three weeks
Protocol: as §1, §2, §3, §4, §5, §6

Wheat [18] = assay: Post-emergence test; format: in vivo; details: greenhouse, 500 g of ai./ha, after three weeks
Protocol: as §1, §2, §3, §7, §8, §6

| SMILES | pest or weed control at 1000 g/ha (Abutilon [1]) [%] | pest or weed control at 1000 g/ha (Amaranthus [3]) [%] | activity against weeds (weeds [6]) | degree of damage to the plants (% damage), Abutilon (Abutilon [7]) [%] | degree of damage to the plants (% damage), Alopecurus (Alopecurus [8]) [%] | pest or weed control at 1000 g/ha (Amaranthus [9]) [%] | degree of damage to the plants (% damage), Galium (Galium [10]) [%] | pest or weed control at 1000 g/ha (Setaria [11]) [%] | degree of damage to the plants (% damage), Xanthium (Xanthium) [%] | activity against weeds (weeds [12]) | pest or weed control at 500 g/ha (Amaranthus [9]) [%] | degree of damage to the plants (% damage), Echinochloa (Echinochloa [16]) [%] | degree of damage to the plants (% damage), Ipomoea (Ipomoea) [%] | degree of damage to the plants (% damage), Polygonum (Polygonum [17]) [%] | pest or weed control at 500 g/ha (Setaria [11]) [%] | degree of damage to the plants (% damage), Solanum (Solanum) [%] | degree of damage to the plants (% damage), Amaranthus (Amaranthus [9]) [%] | degree of damage to the plants (% damage), Setaria (Setaria [11]) [%] | degree of damage to the plants (% damage), Wheat (Wheat [18]) [%] | other results |
| --- | --- | --- | --- | --- | --- | --- | --- | --- | --- | --- | --- | --- | --- | --- | --- | --- | --- | --- | --- | --- |
| CCC(CCc1ccccc1)Nc1nc(N)nc(C(F)(F)F)n1 (stereo not drawn) [Example 41] | 100 | 100 | strong activity | 100 | 80 | 100 | 100 | 100 | 100 | strong activity |  |  |  |  |  |  |  |  |  | degree of damage to the plants (% damage), Alopecurus (Alopecurus [2]): 90%; degree of damage to the plants (% damage), Galium (Galium [4]): 95%; degree of damage to the plants (% damage), Setaria (Setaria [5]): 100% |
| CCC(CCc1ccsc1)Nc1nc(N)nc(C(C)F)n1 (stereo not drawn) [Example 19] |  |  | strong activity |  |  |  |  |  |  | strong activity | 100 | 100 | 100 | 100 | 100 | 100 |  |  |  | pest or weed control at 500 g/ha (Abutilon [1]; 500 g of ai./ha): 100%; pest or weed control at 500 g/ha (Amaranthus [3]; 500 g of ai./ha): 100%; degree of damage to the plants (% damage), Datura (Datura): 100%; degree of damage to the plants (% damage), Digitaria (Digitaria): 100%; degree of damage to the plants (% damage), Echinochloa (Echinochloa [13]): 100%; degree of damage to the plants (% damage), Polygonum (Polygonum [14]): 100%; degree of damage to the plants (% damage), Veronica (Veronica): 100%; degree of damage to the plants (% damage), Wheat (Wheat [15]): 0% |
| CCC(COc1ccccc1)Nc1nc(N)nc(C(F)(F)F)n1 (stereo not drawn) [Example 2] | 80 | 100 | strong activity | 100 | 70 | 100 | 100 | 100 | 100 | strong activity |  |  |  |  |  |  |  |  |  | degree of damage to the plants (% damage), Maize (Maize): 20%; degree of damage to the plants (% damage), Sinapis (Sinapis): 100%; melting point: 100 °C |
| CCC(COc1ccccc1)Nc1nc(N)nc(C(F)(F)F)n1 (stereo not drawn) [Example 4] |  |  |  | 100 | 70 |  | 80 |  | 100 | strong activity |  |  |  |  |  |  | 100 | 100 |  |  |
| CCC(CCc1ccccc1)Nc1nc(N)nc(C(F)(F)F)n1 (stereo not drawn) [Example 43] |  |  |  | 100 |  |  | 70 |  | 100 | strong activity | 100 |  | 100 | 100 | 90 | 100 | 100 | 100 | 10 |  |
| CCC(CCc1cccs1)Nc1nc(N)nc(C(F)(F)F)n1 (stereo not drawn) [Example 11] |  |  |  |  |  |  |  |  |  | strong activity | 100 | 80 | 100 | 100 | 95 | 100 |  |  | 10 |  |
